Experimental data from patent publication US10463658B2, “Method of inhibiting FLT3 kinase” (AROG Pharmaceuticals, LLC, priority 2013, dated 2019).

Experiments:
[1] = target: T1, FLT3 non-autoinhibited (Homo sapiens, UniProt P36888); assay: KINOMEscan KdElect competitive binding assay, non-autoinhibited FLT3; details: tosylate salt
T1 construct: host or cells: E. coli BL21-derived host (T7 phage) or HEK-293
T1 sequence (P36888 610-943 limits assumed): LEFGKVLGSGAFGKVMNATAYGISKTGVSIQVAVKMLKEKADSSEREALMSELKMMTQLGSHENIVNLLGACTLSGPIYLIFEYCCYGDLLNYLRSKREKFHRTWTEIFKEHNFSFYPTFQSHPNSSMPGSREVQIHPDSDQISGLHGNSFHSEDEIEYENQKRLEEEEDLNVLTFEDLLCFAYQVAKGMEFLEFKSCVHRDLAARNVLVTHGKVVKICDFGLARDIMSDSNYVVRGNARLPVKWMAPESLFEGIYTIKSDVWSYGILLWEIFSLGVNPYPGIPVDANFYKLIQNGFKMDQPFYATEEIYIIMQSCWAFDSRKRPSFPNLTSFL
Source text: Competitive binding assay.
The lysates were then centrifuged and filtered.

[2] = target: T2, wild type FLT3 (Homo sapiens, UniProt P36888); assay: Direct enzyme phosphorylation assay (Millipore Kinase IC50 Profiler), wild type FLT3; format: biochemical; details: tosylate salt; n=2; read-out: IC50 against wild type FLT3
T2 construct: purchased Millipore
T2 sequence (P36888 27-993): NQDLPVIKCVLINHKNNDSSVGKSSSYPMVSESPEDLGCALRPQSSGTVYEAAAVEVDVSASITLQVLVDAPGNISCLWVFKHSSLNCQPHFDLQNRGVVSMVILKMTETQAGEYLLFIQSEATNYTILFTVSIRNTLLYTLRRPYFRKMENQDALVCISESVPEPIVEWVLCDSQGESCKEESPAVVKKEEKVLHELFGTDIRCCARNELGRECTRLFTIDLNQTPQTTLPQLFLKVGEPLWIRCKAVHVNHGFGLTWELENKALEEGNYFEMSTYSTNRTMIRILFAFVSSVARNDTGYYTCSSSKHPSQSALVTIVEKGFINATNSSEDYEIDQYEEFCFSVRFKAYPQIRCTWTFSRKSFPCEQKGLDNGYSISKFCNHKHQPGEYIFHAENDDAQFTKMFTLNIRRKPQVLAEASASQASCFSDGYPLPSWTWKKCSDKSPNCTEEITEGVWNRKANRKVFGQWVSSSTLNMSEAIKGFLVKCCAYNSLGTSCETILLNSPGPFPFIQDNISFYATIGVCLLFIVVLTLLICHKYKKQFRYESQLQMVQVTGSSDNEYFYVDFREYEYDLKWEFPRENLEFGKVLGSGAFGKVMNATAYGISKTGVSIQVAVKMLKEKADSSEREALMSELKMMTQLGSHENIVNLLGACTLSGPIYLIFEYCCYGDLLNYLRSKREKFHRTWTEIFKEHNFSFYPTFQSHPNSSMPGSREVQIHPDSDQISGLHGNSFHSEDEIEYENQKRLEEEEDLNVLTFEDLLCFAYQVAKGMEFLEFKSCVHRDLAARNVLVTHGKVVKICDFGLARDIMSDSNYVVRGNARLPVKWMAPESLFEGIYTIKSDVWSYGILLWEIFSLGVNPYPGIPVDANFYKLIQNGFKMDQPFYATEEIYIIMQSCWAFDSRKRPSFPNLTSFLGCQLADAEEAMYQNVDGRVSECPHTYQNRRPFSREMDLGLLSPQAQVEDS
Protocol: Direct enzyme phosphorylation assay. The Millipore Kinase IC50 Profiler assay was used to screen the present invention against a panel of normal FLT3 and mutated FLT3 kinases. For assays of both kinases, the FLT3 enzyme was incubated with 8 mM of 3-(N-morpholino)propanesulfonic acid (MOPS) at a pH of 7.0, 0.2 mM Ethylenediaminetetraacetic acid (EDTA), 50 uM, a synthetic Abl peptide substrate […] (SEQ ID NO: 1), 10 mM MgAcetate and [γ-^33P-ATP]. The reaction was initiated by the addition of MgATp mix. The reaction mixture was incubated for 40 minutes at room temperature and halted by the addition of 3% phosphoric acid solution. 10 uL of the reaction solution was spotted on P30 filtermat and washed three times in 75 mM phosphoric acid for 5 minutes and then once in methanol prior to drying and scintillation counting. The scintillation values for each replicate, including positive and negative controls, were analyzed using XLFit version 5.1 to determine the IC50 values for the present invention against normal and mutated FLT3.

[3] = target: T3, FLT3 ITD (Homo sapiens, UniProt P36888); assay: Inhibition of FLT3-ITD phosphorylation by western blot in BaF3 cells transduced to express FLT3; format: cell-based; details: Ba/F3 FLT3-ITD cells, tosylate salt, read-out: IC50, inhibition of phosphorylation of the FLT3-ITD receptor
T3 sequence (P36888 1-993): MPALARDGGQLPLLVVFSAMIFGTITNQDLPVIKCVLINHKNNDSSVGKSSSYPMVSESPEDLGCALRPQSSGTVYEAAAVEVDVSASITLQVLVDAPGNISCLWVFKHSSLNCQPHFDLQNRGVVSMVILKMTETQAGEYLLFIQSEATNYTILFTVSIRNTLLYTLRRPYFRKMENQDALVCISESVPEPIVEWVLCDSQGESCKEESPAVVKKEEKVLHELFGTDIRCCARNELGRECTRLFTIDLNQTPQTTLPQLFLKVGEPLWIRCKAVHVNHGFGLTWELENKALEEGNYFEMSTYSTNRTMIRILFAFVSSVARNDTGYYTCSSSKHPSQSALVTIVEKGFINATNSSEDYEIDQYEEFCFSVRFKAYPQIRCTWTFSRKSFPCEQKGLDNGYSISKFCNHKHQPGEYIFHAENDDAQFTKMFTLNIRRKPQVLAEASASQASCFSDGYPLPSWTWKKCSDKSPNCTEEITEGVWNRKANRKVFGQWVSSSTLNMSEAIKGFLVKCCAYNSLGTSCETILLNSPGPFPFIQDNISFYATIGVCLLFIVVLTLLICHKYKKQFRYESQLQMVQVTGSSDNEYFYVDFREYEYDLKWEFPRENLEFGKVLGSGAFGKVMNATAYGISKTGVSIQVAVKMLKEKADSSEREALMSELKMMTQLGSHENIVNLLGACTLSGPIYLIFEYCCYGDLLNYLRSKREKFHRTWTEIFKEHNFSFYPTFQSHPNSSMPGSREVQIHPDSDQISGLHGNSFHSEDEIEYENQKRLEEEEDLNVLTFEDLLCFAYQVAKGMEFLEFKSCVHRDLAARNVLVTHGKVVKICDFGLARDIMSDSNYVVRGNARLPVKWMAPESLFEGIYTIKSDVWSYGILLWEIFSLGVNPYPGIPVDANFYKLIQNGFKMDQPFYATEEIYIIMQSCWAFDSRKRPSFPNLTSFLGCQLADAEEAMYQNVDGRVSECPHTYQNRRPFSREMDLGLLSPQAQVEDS
Protocol: The ability of the tosylate (toluenesulfonate) salt of CP-673,451 to inhibit phosphorylated FLT3 was determined using cell lines expressing FLT3-ITD, including Molm-13 (a human acute myeloid leukemia cell line) and BaF3 (bone marrow-derived pro-B-cell line) cells transduced to express FLT3. The effect was examined by western blot.

COCCOc1ccc2c(c1)ncn2-c1ccc2cccc(N3CCC(N)CC3)c2n1 [CP-673,451]
affinity shift between the non-autoinhibited and autoinhibited states of FLT3 [1]: approximately 50 fold
Kd ([1]; average Kd, read-out: Binding Constant (Kd), FLT3 non-autoinhibited): 0.35 nM
IC50 [2]: 4 nM
IC50 [3]: 5.1 nM
